# Measured values: patent publication US20250345446A1 (Draupnir Bio ApS, priority 2022, published 2025)
# Molecular target: T1, soluble ectodomain of sortilin-6his (Homo sapiens, UniProt Q99523, V650M)
# T1 construct: the soluble ectodomain of sortilin-6his is measured by microscale thermophoresis (MST)
# Experiment: MST binding to soluble ectodomain of sortilin-6his
# Conditions: Table 4; small molecule bifunctional compounds; MST; read-out: KD score, binding to sortilin (Kd)
# Procedure: At this point the plate was sealed with adhesive strip and placed on an Eppendorf thermomixer to shake at 600 rpm for 3 min before spinning on a Fisherbrand plate-spinner for 15 seconds and further incubation 1 hrs at 19° C. MST was measured on a Monolith NT. Automated (Nanotemper) in standard-treated capillaries at 5% LED-power and high MST-power. Dose-response was extracted from the raw thermographs at 20 sec hot-time and the dissociation constant was estimated by sigmoidal curve fitting in MO. Affinity analysis program (Nanotemper). All experiments were run in duplicates.
# T1 sequence (Q99523 with tags, fused parts or gaps V650M): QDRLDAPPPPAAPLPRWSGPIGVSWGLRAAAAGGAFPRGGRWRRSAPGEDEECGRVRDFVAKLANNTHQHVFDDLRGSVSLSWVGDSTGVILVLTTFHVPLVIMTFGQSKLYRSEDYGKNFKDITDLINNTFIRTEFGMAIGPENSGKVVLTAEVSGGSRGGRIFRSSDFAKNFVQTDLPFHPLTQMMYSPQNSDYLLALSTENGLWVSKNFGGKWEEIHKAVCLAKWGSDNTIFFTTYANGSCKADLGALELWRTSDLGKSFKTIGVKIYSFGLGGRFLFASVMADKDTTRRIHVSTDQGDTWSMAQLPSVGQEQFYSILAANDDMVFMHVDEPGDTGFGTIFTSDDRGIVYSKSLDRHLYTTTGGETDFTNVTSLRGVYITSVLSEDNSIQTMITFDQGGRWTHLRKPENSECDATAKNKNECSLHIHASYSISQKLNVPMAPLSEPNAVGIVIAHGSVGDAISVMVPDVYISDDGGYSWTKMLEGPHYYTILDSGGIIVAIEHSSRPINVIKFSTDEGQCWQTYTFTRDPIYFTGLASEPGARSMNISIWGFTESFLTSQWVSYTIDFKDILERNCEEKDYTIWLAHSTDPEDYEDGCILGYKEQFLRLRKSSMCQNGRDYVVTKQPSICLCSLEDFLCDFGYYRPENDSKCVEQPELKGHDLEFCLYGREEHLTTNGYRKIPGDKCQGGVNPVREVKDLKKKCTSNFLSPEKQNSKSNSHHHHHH
row,Structure (SMILES),Kd [nM]
1,C[C@@H]1CN(c2ncc(-c3ccc4c(n3)N(Cc3cccnc3C#N)C(C)(C)C4=O)cn2)CCN1C(=O)CNC(=O)COCCOCCCCCCNC(=O)c1cccc(Oc2ccc(C(=O)N[C@@H](CCC(C)(C)C)C(=O)O)cn2)c1,1 to 10
2,"CC(C)(C)CC[C@H](NC(=O)c1ccc(Oc2cccc(C(=O)NCCOCCOCCNc3ccc([N+](=O)[O-])cc3[N+](=O)[O-])c2)nc1)C(=O)O [BF001, (2S)-2-[[6-[3-[2-[2-[2-(2,4-dinitroanilino)ethoxy]ethoxy]ethylcarbamoyl]phenoxy]pyridine-3-carbonyl]amino]-5,5-dimethyl-hexanoic acid]",1 to 10
3,"CC(C)(C)CC[C@H](NC(=O)c1ccc(Oc2cccc(C(=O)NCCOCCOCCOCCNc3ccc([N+](=O)[O-])cc3[N+](=O)[O-])c2)nc1)C(=O)O [BF002, (2S)-2-[[6-[3-[2-[2-[2-[2-(2,4-dinitroanilino)ethoxy]ethoxy]ethoxy]ethyl-carbamoyl]phenoxy]pyridine-3-carbonyl]amino]-5,5-dimethyl-hexanoic acid]",1 to 10
4,"CC(C)(C)CC[C@H](NC(=O)c1ccc(Oc2cccc(C(=O)NCCOCCOCCOCCOCCNc3ccc([N+](=O)[O-])cc3[N+](=O)[O-])c2)nc1)C(=O)O [BF003, (2S)-2-[[6-[3-[2-[2-[2-[2-[2-(2,4-dinitroanilino)ethoxy]ethoxy]ethoxy]ethoxy]ethylcarbamoyl]phenoxy]pyridine-3-carbonyl]amino]-5,5-dimethyl-hexanoic acid]",1 to 10
5,"CC(C)(C)CC[C@H](NC(=O)c1ccc(Oc2cccc(OCCOCCOCCOCCNc3ccc([N+](=O)[O-])cc3[N+](=O)[O-])c2)nc1)C(=O)O [BF007, (2S)-2-[[6-[3-[2-[2-[2-[2-(2,4-dinitroanilino)ethoxy]ethoxy]ethoxy]ethoxy]phenoxy]pyridine-3-carbonyl]amino]-5,5-dimethyl-hexanoic acid]",1 to 10
6,CC(C)(C)CC[C@H](NC(=O)c1ccc(Oc2cccc3c(C(=O)NCCCNC(=O)CCOCCOCCNc4ccc([N+](=O)[O-])cc4[N+](=O)[O-])cccc23)nc1)C(=O)O [BF009],1 to 10
7,"CC(C)(C)CC[C@H](NC(=O)c1ccc(Oc2cccc(OCCOCCOCCOCCOCCOCCOCCOCCNc3ccc([N+](=O)[O-])cc3[N+](=O)[O-])c2)nc1)C(=O)O [BF012, (2S)-2-[[6-[3-[2-[2-[2-[2-[2-[2-[2-[2-(2,4-dinitroanilino)ethoxy]ethoxy]ethoxy]ethoxy]ethoxy]ethoxy]ethoxy]ethoxy]phenoxy]pyridine-3-carbonyl]amino]-5,5-dimethyl-hexanoic acid]",1 to 10
8,"CC(C)(C)CC[C@H](NC(=O)c1ccc(Oc2cccc(C(=O)NCCOCCOCCOCCNc3ncc(-c4ccc5c(n4)N(Cc4cccnc4C#N)C(C)(C)C5=O)cn3)c2)nc1)C(=O)O [BF030, (2S)-2-[[6-[3-[2-[2-[2-[2-[[5-[1-[(2-cyano-3-pyridyl)methyl]-2,2-dimethyl-3-oxo-pyrrolo[2,3-b]pyridin-6-yl]pyrimidin-2-yl]amino]ethoxy]ethoxy]ethoxy]ethylcarbamoyl]phenoxy]pyridine-3-carbonyl]amino]-5,5-dimethyl-hexanoic acid]",< 1
9,"C[C@@H]1CN(c2ncc(-c3ccc4c(n3)N(Cc3cccnc3C#N)C(C)(C)C4=O)cn2)CCN1C(=O)COCCOCCOCCOCCNC(=O)c1cccc(Oc2ccc(C(=O)N[C@@H](CCC(C)(C)C)C(=O)O)cn2)c1 [BF031, (2S)-2-[[6-[3-[2-[2-[2-[2-[2-[(2R)-4-[5-[1-[(2-cyano-3-pyridyl)methyl]-2,2-dimethyl-3-oxo-pyrrolo[2,3-b]pyridin-6-yl]pyrimidin-2-yl]-2-methyl-piperazin-1-yl]-2-oxo-ethoxy]ethoxy]ethoxy]ethoxy]ethylcarbamoyl]phenoxy]pyridine-3-carbonyl]amino]-5,5-dimethyl-hexanoic acid]",10 to 250
